Assay [1] relates to Stichococcus bacillaris SAG 379-1a / CCAP 379/1a. The assay is described as follows: Algal efficacy testing of dry paint film (modified ASTM 5589), Stichococcus. In kind it is cell-based. The settings on record: 3 weeks; for inhibition at 5000 ppm: Stichococcus bacillaris, 504 h, total conc 5000 ppm, visible algal growth vs blank; for Total conc (concentration chosen as minimum inhibitory concentration for SI): dry paint film, pass level ≧75% inhibition, total biocide in liquid paint. As to the method: (§1) Slurries containing 33% antimicrobial active ingredient (Zoxamide) and 45% antimicrobial ingredient Terbutryn were post added to a white, acrylic/silicone based outdoor paint free of biocides to give a total active ingredient concentration of […] respectively. These paints were then diluted with an antimicrobial free acrylic/silicone based paint and mixed to prepare targeted concentrations of antimicrobial compounds for the testing. The total biocides concentrations tested were 125, 250, 500, 1000, 2000 and 5000 ppm. After biocides addition or dilution, the paints were mixed 90 seconds with the horse power shaker (AXEL 75M3372/Agitateur SO-10MI) until uniformity was achieved. Paints containing different antimicrobial compounds at the same levels were mixed together in order to obtain the desired ratio of antimicrobial compounds. After one day, the paints were applied to Schleicher & Schuell filter paper at 280 μm wet film thickness and dried for 3 days at room temperature avoiding direct exposure to sunlight. Square discs (1.6 cm×1.6 cm) were cut out from each panel and were used as the substrate for algal efficacy tests. This sample size allowed for an agar border when the sample disc was placed into the well of the test plate.
(§2) Algal efficacy was tested according to modified ASTM 5589 which is a standard accelerated test method for determining resistance of various coatings (including paints) to algal defacement. To accommodate for high-throughput screening, this method was scaled down from petri dishes to 6-well plates. Bold Modified Basal Freshwater Nutrient Solution was used as growth medium. A single coated filter paper coupon was placed with a pair of sterile forceps at the center of the agar plug (on top) with the painted surface facing upwards. Algal inoculums were prepared by mixing equal concentrations (1×10^6 cfu/ml) and equal volumes of exponentially growing algae cultures.
(§3) Each well that contains a tested coupon was inoculated with 1750 μl of algal suspensions (1×10^6 cfu/ml) making sure that the whole surface (paint film as well as the agar surrounding it) was evenly covered. The plates were incubated at room temp (21° C.-25° C.) with cyclic exposure to light and dark phases, for a period of three weeks.
(§4) At the end of the three week incubation period, the samples were scored for percent inhibition regarding visible algal growth compared to the blank sample (0% inhibition).
(§5) The SI is calculated based on F .C. Kull et.
(§6) The minimal targeted inhibition was set at 75%, meaning a coupon with at least 75% algal growth inhibition was considered as a pass.

Another assay has as its system Chlorella sp. ATCC 7516. The experiment in a line: Algal efficacy testing of dry paint film (modified ASTM 5589), Chlorella. In kind it is cell-based. The settings on record: 3 weeks; for Total conc (concentration chosen as minimum inhibitory concentration for SI): dry paint film, pass level ≧75% inhibition, total biocide in liquid paint. As to the method: as §1, §2, §3, §4, §5, §6

SMILES strings stand for the structures.

For the molecule `CCNc1nc(NC(C)(C)C)nc(SC)n1` [Terbutryn, N^2-tert-butyl-N^4-ethyl-6-methylthio-1,3,5-triazine-2,4-diamine], in assay [1], the inhibition at 5000 ppm was 80% and the “Total conc (concentration chosen as minimum inhibitory concentration for SI)” value worked out at 5000 ppm. Moreover, testing at 2000 ppm in the assay with Chlorella sp. ATCC 7516 (504 h, total conc 2000 ppm, visible algal growth vs blank) gave an inhibition of 85%. In addition, the “Total conc (concentration chosen as minimum inhibitory concentration for SI)” value with Chlorella sp. ATCC 7516 is on record as 2000 ppm.
Take `CCC(C)(NC(=O)c1cc(Cl)c(C)c(Cl)c1)C(=O)CCl` (centres unmarked) [Zoxamide, 3,5-Dichloro-N-(3-chloro-1-ethyl-1-methyl-2-oxopropyl)-4-methylbenzamide]: the inhibition at 5000 ppm in assay [1] is 45%; in the assay with Chlorella sp. ATCC 7516 (504 h, total conc 5000 ppm, visible algal growth vs blank) it was 60%. Besides, the “Total conc (concentration chosen as minimum inhibitory concentration for SI)” value (in assay [1]; in the assay with Chlorella sp. ATCC 7516) was 5000 ppm in each case.

Values taken from patent US20150296783A1, “SYNERGISTIC COMBINATION OF A ZOXAMIDE COMPOUND AND TERBUTRYN FOR DRY FILM PROTECTION” (ROHM AND HAAS COMPANY, priority 2012, published 2015).
